# Measurements reported in patent publication US12157741B2, “Macrocyclic inhibitors of DYRK1A” (DANA-FARBER CANCER INSTITUTE, INC., priority 2018, dated 2024).
# Read-outs that look alike come from different tables or passages of the source.
# Assays:
# Assay type in all cases: binding
# various enzymes [1] = target: various enzymes (Plasmodium falciparum, UniProt P62344)
# Experimental: (§1) Ambit profiling was conducted in accordance with the manufacturer's instructions.
# various enzymes [2] = target: various enzymes (Homo sapiens, UniProt Q8WU08); conditions: compound 1 uM
# Experimental: as §1
# various enzymes [3] = target: various enzymes (Homo sapiens, UniProt Q8NEV4); conditions: compound 1 uM
# Experimental: as §1
# various enzymes [4] = target: various enzymes (Homo sapiens, UniProt Q14680); conditions: compound 1 uM
# Experimental: as §1
# various enzymes [5] = target: various enzymes (Homo sapiens, UniProt Q9P2K8, S808G)
# Experimental: as §1
# various enzymes [6] = target: various enzymes (Homo sapiens, UniProt Q9BRS2); conditions: compound 1 uM
# Experimental: as §1
# various enzymes [7] = target: various enzymes (Homo sapiens, UniProt Q9UM73, L1196M)
# various enzymes (Homo sapiens, UniProt Q9UM73, L1196M), sequence (Q9UM73 19-1620 L1196M): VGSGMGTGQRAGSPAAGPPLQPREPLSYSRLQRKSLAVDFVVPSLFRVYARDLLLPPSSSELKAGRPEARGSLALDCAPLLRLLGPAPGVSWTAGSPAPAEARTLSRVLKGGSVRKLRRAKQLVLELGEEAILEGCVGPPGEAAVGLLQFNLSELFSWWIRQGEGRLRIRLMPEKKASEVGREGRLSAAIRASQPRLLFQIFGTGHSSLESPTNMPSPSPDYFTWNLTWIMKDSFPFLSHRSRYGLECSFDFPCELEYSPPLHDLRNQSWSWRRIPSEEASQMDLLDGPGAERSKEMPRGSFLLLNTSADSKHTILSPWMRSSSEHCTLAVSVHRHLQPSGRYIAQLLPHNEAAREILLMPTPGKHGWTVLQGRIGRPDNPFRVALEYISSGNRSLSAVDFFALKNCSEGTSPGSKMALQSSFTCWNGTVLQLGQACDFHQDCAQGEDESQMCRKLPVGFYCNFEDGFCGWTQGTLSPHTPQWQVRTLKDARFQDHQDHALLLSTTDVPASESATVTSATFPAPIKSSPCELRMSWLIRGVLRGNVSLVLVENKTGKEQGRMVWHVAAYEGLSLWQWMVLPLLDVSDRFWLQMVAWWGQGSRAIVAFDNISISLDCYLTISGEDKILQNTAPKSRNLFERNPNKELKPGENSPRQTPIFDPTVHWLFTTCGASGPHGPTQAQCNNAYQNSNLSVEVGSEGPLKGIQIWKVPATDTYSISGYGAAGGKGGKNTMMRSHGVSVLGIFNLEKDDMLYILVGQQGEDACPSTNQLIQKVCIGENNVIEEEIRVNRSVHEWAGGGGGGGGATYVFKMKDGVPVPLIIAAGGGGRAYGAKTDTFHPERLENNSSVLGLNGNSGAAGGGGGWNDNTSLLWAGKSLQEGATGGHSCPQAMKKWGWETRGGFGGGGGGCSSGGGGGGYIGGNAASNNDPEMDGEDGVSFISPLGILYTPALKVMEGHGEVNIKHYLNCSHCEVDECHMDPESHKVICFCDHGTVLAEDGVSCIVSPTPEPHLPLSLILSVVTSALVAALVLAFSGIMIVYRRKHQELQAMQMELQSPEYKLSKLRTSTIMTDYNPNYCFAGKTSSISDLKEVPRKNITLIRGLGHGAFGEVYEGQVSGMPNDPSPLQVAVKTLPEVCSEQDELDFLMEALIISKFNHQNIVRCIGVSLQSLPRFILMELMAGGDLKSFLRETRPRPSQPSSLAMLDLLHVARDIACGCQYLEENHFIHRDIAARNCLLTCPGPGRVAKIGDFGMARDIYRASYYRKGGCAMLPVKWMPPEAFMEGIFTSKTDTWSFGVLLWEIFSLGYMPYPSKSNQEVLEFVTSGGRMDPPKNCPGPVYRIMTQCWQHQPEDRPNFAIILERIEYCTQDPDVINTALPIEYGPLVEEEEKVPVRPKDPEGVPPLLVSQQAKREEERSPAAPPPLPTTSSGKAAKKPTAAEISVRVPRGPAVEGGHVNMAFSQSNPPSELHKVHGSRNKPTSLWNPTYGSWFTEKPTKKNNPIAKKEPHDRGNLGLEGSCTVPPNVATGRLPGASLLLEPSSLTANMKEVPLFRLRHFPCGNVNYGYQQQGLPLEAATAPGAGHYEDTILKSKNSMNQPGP
# Experimental: as §1
# various enzymes [8] = target: various enzymes (Homo sapiens, UniProt Q02156); conditions: compound 1 uM
# various enzymes (Homo sapiens, UniProt Q02156), sequence (Q02156 whole entry): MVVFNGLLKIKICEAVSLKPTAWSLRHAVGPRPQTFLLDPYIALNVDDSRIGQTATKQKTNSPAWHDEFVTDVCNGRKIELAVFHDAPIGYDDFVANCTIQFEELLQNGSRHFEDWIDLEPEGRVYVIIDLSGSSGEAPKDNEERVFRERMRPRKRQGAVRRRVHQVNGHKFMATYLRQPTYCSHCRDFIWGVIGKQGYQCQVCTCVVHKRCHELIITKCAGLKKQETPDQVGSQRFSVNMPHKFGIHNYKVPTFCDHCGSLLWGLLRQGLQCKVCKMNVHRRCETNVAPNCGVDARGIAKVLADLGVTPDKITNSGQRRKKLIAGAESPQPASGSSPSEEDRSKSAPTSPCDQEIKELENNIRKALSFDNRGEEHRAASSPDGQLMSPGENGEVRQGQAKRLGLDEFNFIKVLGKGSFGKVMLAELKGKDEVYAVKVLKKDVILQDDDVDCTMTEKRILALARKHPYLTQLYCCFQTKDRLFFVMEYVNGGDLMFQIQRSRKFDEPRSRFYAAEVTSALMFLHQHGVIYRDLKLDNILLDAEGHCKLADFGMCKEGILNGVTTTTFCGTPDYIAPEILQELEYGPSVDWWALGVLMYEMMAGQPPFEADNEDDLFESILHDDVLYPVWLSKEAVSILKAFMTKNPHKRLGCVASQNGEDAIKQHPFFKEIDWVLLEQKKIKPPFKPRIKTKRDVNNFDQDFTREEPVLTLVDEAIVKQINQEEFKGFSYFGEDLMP
# Experimental: as §1
# various enzymes [9] = target: various enzymes (Homo sapiens, UniProt P51813); conditions: compound 1 uM
# various enzymes (Homo sapiens, UniProt P51813), sequence (P51813 whole entry): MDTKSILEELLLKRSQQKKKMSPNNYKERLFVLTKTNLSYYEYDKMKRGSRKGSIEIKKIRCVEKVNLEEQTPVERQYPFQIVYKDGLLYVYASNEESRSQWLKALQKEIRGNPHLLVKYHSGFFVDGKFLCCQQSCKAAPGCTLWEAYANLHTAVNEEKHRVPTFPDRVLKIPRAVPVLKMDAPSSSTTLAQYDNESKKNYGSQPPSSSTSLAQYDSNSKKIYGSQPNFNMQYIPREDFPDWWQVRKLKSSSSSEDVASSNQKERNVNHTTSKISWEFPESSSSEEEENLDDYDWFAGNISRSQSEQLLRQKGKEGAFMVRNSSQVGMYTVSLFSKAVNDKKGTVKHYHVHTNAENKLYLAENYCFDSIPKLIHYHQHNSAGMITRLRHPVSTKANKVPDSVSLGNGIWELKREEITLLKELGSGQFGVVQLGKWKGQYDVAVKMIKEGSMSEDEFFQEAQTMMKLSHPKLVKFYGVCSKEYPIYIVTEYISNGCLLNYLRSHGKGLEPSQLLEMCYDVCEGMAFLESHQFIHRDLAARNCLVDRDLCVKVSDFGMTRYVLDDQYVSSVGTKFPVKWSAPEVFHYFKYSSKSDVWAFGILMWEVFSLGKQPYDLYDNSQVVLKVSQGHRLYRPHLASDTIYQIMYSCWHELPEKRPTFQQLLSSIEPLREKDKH
# Experimental: as §1
# various enzymes [10] = target: various enzymes (Homo sapiens, UniProt Q86Z02); conditions: compound 1 uM
# Experimental: as §1
# various enzymes [11] = target: various enzymes (Homo sapiens, UniProt Q16513); conditions: compound 1 uM
# various enzymes (Homo sapiens, UniProt Q16513), sequence (Q16513 whole entry): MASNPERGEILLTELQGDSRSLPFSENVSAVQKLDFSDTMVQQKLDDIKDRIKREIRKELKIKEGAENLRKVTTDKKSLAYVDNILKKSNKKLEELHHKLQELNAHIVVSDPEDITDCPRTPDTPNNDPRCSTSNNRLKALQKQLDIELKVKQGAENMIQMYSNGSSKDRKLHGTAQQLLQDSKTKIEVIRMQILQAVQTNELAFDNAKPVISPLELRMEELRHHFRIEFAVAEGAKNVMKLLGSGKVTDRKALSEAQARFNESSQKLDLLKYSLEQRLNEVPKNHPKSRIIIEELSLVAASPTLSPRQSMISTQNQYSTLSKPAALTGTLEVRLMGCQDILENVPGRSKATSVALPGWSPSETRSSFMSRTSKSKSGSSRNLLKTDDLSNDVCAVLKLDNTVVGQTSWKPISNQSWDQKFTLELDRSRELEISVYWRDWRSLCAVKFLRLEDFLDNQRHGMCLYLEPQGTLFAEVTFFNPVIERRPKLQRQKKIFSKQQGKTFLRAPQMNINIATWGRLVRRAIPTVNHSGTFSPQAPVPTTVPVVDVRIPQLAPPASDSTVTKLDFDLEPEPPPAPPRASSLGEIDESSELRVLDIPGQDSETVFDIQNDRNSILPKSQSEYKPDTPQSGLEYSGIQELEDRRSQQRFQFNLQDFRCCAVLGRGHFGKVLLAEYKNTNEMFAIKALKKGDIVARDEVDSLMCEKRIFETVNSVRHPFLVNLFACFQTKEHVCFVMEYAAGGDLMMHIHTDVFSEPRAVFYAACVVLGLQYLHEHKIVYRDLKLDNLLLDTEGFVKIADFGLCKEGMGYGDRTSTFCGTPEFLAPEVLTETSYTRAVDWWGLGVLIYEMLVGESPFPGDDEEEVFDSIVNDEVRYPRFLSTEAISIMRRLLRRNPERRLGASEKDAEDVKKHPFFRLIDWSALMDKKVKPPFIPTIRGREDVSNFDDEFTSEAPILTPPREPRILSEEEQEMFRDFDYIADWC
# Experimental: as §1
# various enzymes [12] = target: various enzymes (Homo sapiens, UniProt P78356); conditions: compound 1 uM
# various enzymes (Homo sapiens, UniProt P78356), sequence (P78356 whole entry): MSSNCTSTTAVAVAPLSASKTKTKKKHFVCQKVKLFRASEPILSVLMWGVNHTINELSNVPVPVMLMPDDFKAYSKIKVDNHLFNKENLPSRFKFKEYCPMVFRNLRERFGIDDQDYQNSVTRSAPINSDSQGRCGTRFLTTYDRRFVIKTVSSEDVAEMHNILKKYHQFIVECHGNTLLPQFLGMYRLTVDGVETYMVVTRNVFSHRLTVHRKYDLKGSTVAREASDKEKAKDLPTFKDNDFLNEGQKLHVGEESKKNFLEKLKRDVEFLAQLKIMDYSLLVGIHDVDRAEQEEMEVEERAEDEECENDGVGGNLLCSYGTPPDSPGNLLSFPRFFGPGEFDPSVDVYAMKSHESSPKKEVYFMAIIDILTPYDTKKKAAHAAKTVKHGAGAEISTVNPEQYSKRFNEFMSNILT
# Experimental: as §1
# various enzymes [13] = target: T1, various enzymes (Homo sapiens, UniProt O14733); conditions: compound 1 uM
# T1 sequence (O14733 1-419): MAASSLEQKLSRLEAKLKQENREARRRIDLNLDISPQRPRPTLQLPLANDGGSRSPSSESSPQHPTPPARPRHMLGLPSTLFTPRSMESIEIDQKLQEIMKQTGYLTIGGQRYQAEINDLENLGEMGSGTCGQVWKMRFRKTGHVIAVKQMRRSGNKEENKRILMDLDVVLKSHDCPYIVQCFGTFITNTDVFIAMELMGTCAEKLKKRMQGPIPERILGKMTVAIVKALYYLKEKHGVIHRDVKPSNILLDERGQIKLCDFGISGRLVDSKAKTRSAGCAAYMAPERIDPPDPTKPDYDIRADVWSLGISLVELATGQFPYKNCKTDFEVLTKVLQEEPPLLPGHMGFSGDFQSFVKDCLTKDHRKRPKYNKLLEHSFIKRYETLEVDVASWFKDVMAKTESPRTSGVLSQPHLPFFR
# Experimental: as §1
# various enzymes [14] = target: various enzymes (Homo sapiens, UniProt Q02763); conditions: compound 1 uM
# Experimental: as §1
# various enzymes [15] = target: T2, various enzymes (Homo sapiens, UniProt Q99640); conditions: compound 1 uM
# T2 sequence (Q99640 1-499): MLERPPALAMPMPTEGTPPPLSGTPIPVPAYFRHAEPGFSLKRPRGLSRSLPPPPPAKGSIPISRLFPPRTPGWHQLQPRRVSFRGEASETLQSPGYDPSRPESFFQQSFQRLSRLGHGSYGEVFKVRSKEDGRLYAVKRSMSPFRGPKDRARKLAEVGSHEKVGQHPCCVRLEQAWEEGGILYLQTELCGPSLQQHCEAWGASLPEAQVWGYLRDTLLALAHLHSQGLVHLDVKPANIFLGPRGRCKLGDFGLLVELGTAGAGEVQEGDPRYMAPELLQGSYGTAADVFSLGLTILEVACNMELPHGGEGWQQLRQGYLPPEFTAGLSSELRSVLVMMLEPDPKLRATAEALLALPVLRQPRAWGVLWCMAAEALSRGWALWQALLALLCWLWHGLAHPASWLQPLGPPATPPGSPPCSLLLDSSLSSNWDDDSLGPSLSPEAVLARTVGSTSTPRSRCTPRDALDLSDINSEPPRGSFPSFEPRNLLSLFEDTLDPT
# Experimental: as §1
# various enzymes [16] = target: various enzymes (Homo sapiens, UniProt P00533, G719S)
# Experimental: as §1
# various enzymes [17] = target: T3, various enzymes (Homo sapiens, UniProt O75385); conditions: compound 1 uM
# T3 sequence (O75385 1-1050): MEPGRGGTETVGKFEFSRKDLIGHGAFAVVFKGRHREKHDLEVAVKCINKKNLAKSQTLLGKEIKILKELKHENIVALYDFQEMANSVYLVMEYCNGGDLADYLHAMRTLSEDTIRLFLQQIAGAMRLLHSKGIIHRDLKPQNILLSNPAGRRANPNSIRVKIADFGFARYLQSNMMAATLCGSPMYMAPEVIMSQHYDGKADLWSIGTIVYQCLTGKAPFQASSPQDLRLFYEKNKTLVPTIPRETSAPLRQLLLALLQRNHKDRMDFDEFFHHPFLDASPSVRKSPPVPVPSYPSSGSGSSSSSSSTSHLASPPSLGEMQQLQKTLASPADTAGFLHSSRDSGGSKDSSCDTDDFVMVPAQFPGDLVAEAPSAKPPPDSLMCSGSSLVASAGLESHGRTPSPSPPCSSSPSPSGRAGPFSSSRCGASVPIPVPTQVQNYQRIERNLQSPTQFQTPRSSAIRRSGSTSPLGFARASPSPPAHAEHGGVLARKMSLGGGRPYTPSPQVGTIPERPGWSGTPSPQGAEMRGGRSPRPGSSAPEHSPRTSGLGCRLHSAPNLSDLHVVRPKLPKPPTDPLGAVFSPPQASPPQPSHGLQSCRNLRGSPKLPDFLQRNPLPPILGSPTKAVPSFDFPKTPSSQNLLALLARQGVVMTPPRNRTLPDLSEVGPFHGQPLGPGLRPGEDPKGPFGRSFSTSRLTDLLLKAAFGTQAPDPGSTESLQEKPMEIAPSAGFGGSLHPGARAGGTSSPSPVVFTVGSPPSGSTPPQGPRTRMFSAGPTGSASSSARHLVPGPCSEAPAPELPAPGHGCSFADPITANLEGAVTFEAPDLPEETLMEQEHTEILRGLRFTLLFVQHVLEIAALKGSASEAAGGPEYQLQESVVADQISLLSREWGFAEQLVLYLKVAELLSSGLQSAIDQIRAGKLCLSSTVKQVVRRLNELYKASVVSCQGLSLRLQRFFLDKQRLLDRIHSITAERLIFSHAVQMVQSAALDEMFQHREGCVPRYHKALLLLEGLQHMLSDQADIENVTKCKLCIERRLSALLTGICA
# Experimental: as §1
# various enzymes [18] = target: various enzymes (Homo sapiens, UniProt Q02750); conditions: compound 1 uM
# Experimental: as §1
# various enzymes (Plasmodium falciparum, UniProt P62344), sequence (P62344 whole entry): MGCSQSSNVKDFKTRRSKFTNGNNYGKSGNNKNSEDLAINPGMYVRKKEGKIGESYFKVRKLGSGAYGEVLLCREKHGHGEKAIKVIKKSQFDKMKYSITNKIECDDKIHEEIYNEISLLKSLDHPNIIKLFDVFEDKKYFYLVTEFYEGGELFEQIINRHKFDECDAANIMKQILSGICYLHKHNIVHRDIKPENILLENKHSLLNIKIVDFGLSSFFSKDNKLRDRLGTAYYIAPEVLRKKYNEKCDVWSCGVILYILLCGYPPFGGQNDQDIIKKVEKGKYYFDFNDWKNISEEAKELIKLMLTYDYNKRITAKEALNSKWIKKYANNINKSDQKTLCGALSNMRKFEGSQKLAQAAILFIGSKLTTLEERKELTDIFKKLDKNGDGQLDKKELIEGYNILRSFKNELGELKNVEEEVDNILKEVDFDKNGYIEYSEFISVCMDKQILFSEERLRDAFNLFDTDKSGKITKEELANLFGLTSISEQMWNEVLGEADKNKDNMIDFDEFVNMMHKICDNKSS
SMILES,Ambit profiling: YANK1 (various enzymes [2]),Ambit profiling: MYO3A (various enzymes [3]),Ambit profiling: MELK (various enzymes [4]),Ambit profiling: PRKCE (various enzymes [8]),Ambit profiling: BMX (various enzymes [9]),Ambit profiling: HIPK1 (various enzymes [10]),Ambit profiling: PKN2 (various enzymes [11]),Ambit profiling: PIP5K2B (various enzymes [12]),Ambit profiling: MKK7 (various enzymes [13]),Ambit profiling: TIE2 (various enzymes [14]),Ambit profiling: PKMYT1 (various enzymes [15]),Ambit profiling: ULK1 (various enzymes [17]),Ambit profiling: MEK1 (various enzymes [18]),also measured
"CC(C)N1Cc2nn(C)cc2-c2cnc3[nH]cc(c3c2)-c2cn(nc2C(F)(F)F)CCCC1=O [Compound 45, (Z)-5-isopropyl-31-methyl-13-(trifluoromethyl)-11H,21H,31H-5-aza-2(3,5)-pyrrolo[2,3-b]pyridina-1(4,1),3(4,3)-dipyrazolacyclononaphan-6-one]",100,23,0.25,90,35,6.5,100,23,76,6.7,92,75,17,"Ambit profiling: PFCDPK1(P. falciparum) (various enzymes [1]; compound 1 uM): 2.8; Ambit profiling: GCN2(Kin.Dom.2, S808G) (various enzymes [5]; compound 1 uM): 100; Ambit profiling: RICK1 (various enzymes [6]): 1.4; Ambit profiling: ALK(L1196M) (various enzymes [7]; compound 1 uM): 18; Ambit profiling: EGFR(G719S) (various enzymes [16]; compound 1 uM): 41"
"COc1c2c(nn1C)CN(C(C)C)C(=O)CCCn1cc(c(C(F)(F)F)n1)-c1c[nH]c3ncc-2cc13 [Compound 50, (Z)-5-isopropyl-35-methoxy-31-methyl-13-(trifluoromethyl)-11H,21H,31H-5-aza-2(3,5)-pyrrolo[2,3-b]pyridina-1(4,1),3(4,3)-dipyrazolacyclononaphan-6-one]",24,11,11,30,24,13,100,35,80,2.7,86,93,12,"Ambit profiling: PFCDPK1(P. falciparum) (various enzymes [1]): 24; Ambit profiling: GCN2(Kin.Dom.2, S808G) (various enzymes [5]): 100; Ambit profiling: RIOK1 (various enzymes [6]): 16; Ambit profiling: ALK(L1196M) (various enzymes [7]): 12; Ambit profiling: EGFR(G719S) (various enzymes [16]): 41"
